Test results: patent US5670492A, “DC-89 derivatives” (priority 1994, dated 1997)
Where two headings read alike, the source gives them in different places.

Columns and labels:
[1] = when used as injections; cited from earlier work
Sarcoma 180 tumor = assay: Therapeutic Effect Against Sarcoma 180 Tumor; type: in vivo, male ddY-strain mice; settings: Mus musculus, Sarcoma-180, iv, 168 h, read-out: T/C
Procedure: Five male ddY-strain mice each weighing 18-20 g were used for each group as test animals, and 5×10^5 Sarcoma 180 tumor cells were implanted at the axilla subcutaneously. One day after the implantation, 0.2 ml of a physiological saline containing Compound (I) at the concentration shown in Table 2 was intravenously administered to each mouse. T/C [T: average tumor volume (mm^3) of the group treated with the test compound, C: average tumor volume (mm^3) of the control group (to which […] of a physiological saline was intravenously administered)] was determined seven days after the implantation.

[2] = Test for Solubility in Water; type: physicochemical; settings: room temperature
Procedure: A sample tube was charged with 0.7 mg of Compound (I), and 30 μl of water were added thereto at room temperature. The mixture was stirred, and the solubility in water was measured. When the compound was not dissolved, 30 μl of water was added thereto successively, and the mixture was stirred. The solubility in water was measured when the compound was dissolved.

ddY-strain male mice = assay: Acute Toxicity; type: in vivo; settings: i.v., mortality at 14 days after administration
Procedure: Compound (I) was intravenously administered to ddY-strain male mice each weighing 20±1 g. MLD (minimum lethal dose) was determined by observing the mortality at 14 days after administration.

HeLaS3 cells = assay: Growth Inhibitory Effect Against HeLaS3 cells; type: cell-based
Procedure: HeLaS3 cells were suspended in MEM medium containing 10% calf serum and 2 mM glutamine to a concentration of 2.67×10^4 cells/mi. The cell suspension thus prepared was put into wells of a 24-well culture plate in an amount of 0.75 ml per well. After the cells were incubated in a CO2 incubator overnight at 37° C., Compound (I) which had been appropriately diluted with a culture medium was added to each well in an amount of 0.25 ml.
The cells were further incubated in the CO2 incubator for 72 hours, and the culture supernatant was removed. Then, the cells were dispersed in a solution of trypsin and EDTA and recovered. The number of cells was counted using a cell counter. The concentration (IC50) of Compound (I) at which the growth of the cells is inhibited by 50% was calculated by comparing the number of untreated cells with the number of the cells treated with Compound (I) at known concentrations.

melanoma B-16 = settings: cited from earlier work
various bacteria = settings: cited from earlier work

## COC(=O)c1c(C)[nH]c2c1C13CC1CN(C(=O)/C=C/c1ccc(OC)cc1)C3=CC2=O (centres unmarked) [(B)]
[1]
  water-solubility: lack satisfactory water-solubility

## COC(=O)c1c(C)[nH]c2c(OC(=O)c3cccnc3)cc3c(c12)C(CBr)CN3C(=O)/C=C/c1ccc(OC)c(N(C)C)c1 (centres unmarked) [Compound 55]
Sarcoma 180 tumor
  response vs control in vivo at 1 mg/kg: 28%
[2]
  solubility: > 18 mg/mL
ddY-strain male mice
  MLD (minimum lethal dose): 1.0 mg/kg
HeLaS3 cells; Homo sapiens, HeLa S3, 72 h
  IC50: 0.43 nM

## COC(=O)c1c(C)[nH]c2c(OC(=O)NN3CCN(C)CC3)cc3c(c12)C(CBr)CN3C(=O)/C=C/c1ccc(OC)c(N(C)C)c1 (centres unmarked) [Compound 60]
Sarcoma 180 tumor
  response vs control in vivo at 4 mg/kg: 15%
[2]
  solubility: > 20 mg/mL
ddY-strain male mice
  MLD (minimum lethal dose): > 8.0 mg/kg
HeLaS3 cells; Homo sapiens, HeLa S3, 72 h
  IC50: 0.94 nM

## COC(=O)c1c(C)[nH]c2c(OC(=O)NN(C)C)cc3c(c12)C(CBr)CN3C(=O)/C=C/c1ccc(OC)c(N(C)C)c1 (centres unmarked) [Compound 62]
Sarcoma 180 tumor; 2.0 mg/kg, single i.v. one day after s.c. implantation, tumor volume ratio seven days after implantation
  response vs control in vivo at 2 mg/kg: 19%
[2]
  solubility: > 20 mg/mL
ddY-strain male mice
  MLD (minimum lethal dose): 2.0 mg/kg
HeLaS3 cells; Homo sapiens, HeLa S3, 72 hours, read-out: IC50
  IC50: 0.62 nM

## CNN(C)C(=O)Oc1cc2c(c3c(C(=O)OC)c(C)[nH]c13)C(CBr)CN2C(=O)/C=C/c1ccc(OC)c(N(C)C)c1 (centres unmarked) [Compound 64]
Sarcoma 180 tumor
  response vs control in vivo at 1.3 mg/kg: 26%
[2]
  solubility: > 15 mg/mL
ddY-strain male mice
  MLD (minimum lethal dose): 2.0 mg/kg
HeLaS3 cells; Homo sapiens, HeLa S3, 72 h
  IC50: 1.1 nM

## COC(=O)c1c(C)[nH]c2c(OC(=O)c3ccc(CN4CCN(C)CC4)cc3)cc3c(c12)C(CBr)CN3C(=O)/C=C/c1ccc(OC)c(N(C)C)c1 (centres unmarked) [Compound 66]
Sarcoma 180 tumor
  response vs control in vivo at 2 mg/kg: 21%
[2]
  solubility: > 20 mg/mL
ddY-strain male mice
  MLD (minimum lethal dose): 2.0 mg/kg
HeLaS3 cells; Homo sapiens, HeLa S3, 72 h
  IC50: 1.1 nM

## COC(=O)c1c(C)[nH]c2c(OC(=O)NN3CCN(C)CC3)cc3c(c12)C(CCl)CN3C(=O)/C=C/c1cnc(OC)nc1 (centres unmarked) [Compound 69]
Sarcoma 180 tumor
  response vs control in vivo at 4 mg/kg: 40%
[2]
  solubility: > 10 mg/mL
ddY-strain male mice
  MLD (minimum lethal dose): 4.0 mg/kg
HeLaS3 cells; Homo sapiens, HeLa S3, 72 h
  IC50: 1.4 nM

## COC(=O)c1c(C)[nH]c2c(OC(=O)NN3CCN(C)CC3)cc3c(c12)C(CBr)CN3C(=O)/C=C/c1cnc(OC)nc1 (centres unmarked) [Compound 72]
Sarcoma 180 tumor
  response vs control in vivo at 4 mg/kg: 15%
[2]
  Solubility in water: > 10 mg/mL
ddY-strain male mice
  MLD (minimum lethal dose): 4.0 mg/kg
HeLaS3 cells; 72 hours
  IC50: 1.6 nM

## COC(=O)c1cc2c([nH]1)C(=O)C=C1N(C(=O)c3cc4cc(OC)c(OC)c(OC)c4[nH]3)CC3CC123 (centres unmarked) [DC113]
Melanoma B-16
  antitumor activity: anti-tumor activity against melanoma B-16
Various bacteria
  antibacterial activity: antibacterial activity against various bacteria

## COC(=O)C1(C)NC2=C(C1=O)C13CC1CN(C(=O)c1cc4cc(OC)c(OC)c(OC)c4[nH]1)C3=CC2=O (centres unmarked) [DC-88A]
Melanoma B-16
  antitumor activity: anti-tumor activity against melanoma B-16
Various bacteria
  antibacterial activity: antibacterial activity against various bacteria

## COC(=O)C1(C)Nc2c(O)cc3c(c2C1=O)CC(Cl)CN3C(=O)c1cc2cc(OC)c(OC)c(OC)c2[nH]1 (centres unmarked) [DC-89A1]
Melanoma B-16
  antitumor activity: antitumor activity against melanoma B-16
Various bacteria
  antibacterial activity: antibacterial activity against various bacteria

## COC(=O)C1(C)Nc2c(O)cc3c(c2C1=O)C(CCl)CN3C(=O)c1cc2cc(OC)c(OC)c(OC)c2[nH]1 (centres unmarked) [DC-89A2]
Melanoma B-16
  antitumor activity: antitumor activity against melanoma B-16
Various bacteria
  antibacterial activity: antibacterial activity against various bacteria

## COC(=O)C1(C)Nc2c(O)cc3c(c2C1=O)CC(Br)CN3C(=O)c1cc2cc(OC)c(OC)c(OC)c2[nH]1 (centres unmarked) [DC-89B1]
Melanoma B-16
  antitumor activity: antitumor activity against melanoma B-16
Various bacteria
  antibacterial activity: antibacterial activity against various bacteria

## COC(=O)C1(C)Nc2c(O)cc3c(c2C1=O)C(CBr)CN3C(=O)c1cc2cc(OC)c(OC)c(OC)c2[nH]1 (centres unmarked) [DC-89B2]
Melanoma B-16
  antitumor activity: antitumor activity against melanoma B-16
Various bacteria
  antibacterial activity: antibacterial activity against various bacteria
